Here are results for 3 molecules from patent publication US8895561B2, “Compounds and methods for treating candidiasis and aspergillus infections” (Cellceutix Corporation, priority 2012, dated 2014).

The structures appear in SMILES notation. Like-named read-outs stand apart in the source and are kept apart here. Some results are limits rather than exact numbers.

In data set [1] the test system is C. albicans. In words: Disseminated candidiasis model, survival study. The format is in vivo. To be noted: neutropenic mice. The method, then:
Mice were made neutropenic with i.p. injections of cyclophosphamide (150 mg/kg in 10 mL/kg) at 4 and 1 day before inoculation. Each animal was then inoculated by injecting 0.1 mL of inoculum of C. albicans in a tail vein. At 2 hours post-infection, the standard was administered orally and the test compound by IV. Compounds were dosed once daily for 4 days.
The kidneys were collected from four mice in Group 1 at 2 hours after infection, from four mice in Groups 2-5 at five days after infection, and from all surviving mice in the infected treatment groups. An aliquot of sterile PBS were added to each tube and the contents homogenized with a tissue homogenizer. Serial dilutions of the tissue homogenates were conducted, 0.1 mL aliquots were spread on SDA plates and the plates incubated at 35° C. overnight. The CFU/kidneys were determined from colony counts.
Survival data was analyzed using the log-rank (Mantel-Cox) test and one-way ANOVA with Tukey's Multiple Comparisons Test was performed on the yeast density and change in body weight data (GraphPad InStat version 5.04).

In data set [2] the test system is C. albicans. The data set is described as follows: Mouse Candida sepsis model, kidney burden. Particulars: neutropenic mice, IV 1 hour after infection, kidneys at 24 hours. The format is in vivo. How it is done: Mice were made neutropenic with i.p. injections of cyclophosphamide (150 mg/kg in 10 mL/kg) at 4 and 1 day before inoculation. Each animal was then inoculated by injecting 0.1 mL of inoculum of C. albicans in a tail vein. The standard was administered orally and the test compounds by IV 1 hour after infection. The kidneys were collected from four mice in Group 1 at 1 hour after infection and from the remaining mice in the study at 24 hours after infection. Kidneys were combined in a sterile tube. An aliquot of sterile PBS were added to each tube and the contents homogenized with a tissue homogenizer. Serial dilutions of the tissue homogenates were conducted, 0.1 mL aliquots were spread on SDA plates and the plates incubated at 35° C. overnight. The CFU/kidneys were determined from colony counts. One-way ANOVA with Bonferroni Multiple Comparisons Test was performed using GraphPad InStat version 3.00 for Windows 95, GraphPad Software, San Diego Calif. USA.

Data set [3] can be described thus: Cytotoxicity, MTS viability assay. In kind it is cell-based, human. To be noted: Table 6. The method in brief:
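Cytotoxicity in mouse 3T3 fibroblasts and human HepG2 liver cells measured by MTS viability assay. Values reported as EC50.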
In general terms: Tetrazolium dyes change colour on reduction, which living cells bring about.

Data set [4] relates to C. albicans (GDH2346) hyphae. The data set is described as follows: Activity against hyphae, Live-Dead stain fluorescence microscopy. The format is cell-based. Particulars: 8 μg/mL, 15 to 60 minutes. How it is done:
C. albicans (GDH2346) was grown in 10% FCS for 3 days to achieve hyphae. Hyphae were treated with Compound 100 (8 μg/mL) for 0 minutes (see, FIG. 2A), 15 minutes (see, FIG. 2B), 30 minutes (see, FIG. 2C), or 60 minutes (see, FIG. 2D). Cultures were stained with FungaLight Live-Dead stain (InVitrogen) and observed under fluorescence microscopy (100× magnification).

Data set [5] concerns C. albicans (clinical isolate GDH2346). In words: Mouse model of oral candidiasis. The format is in vivo, mice. How it is done: To examine the activity of Compound 100 in vivo, an oral model of Candida infection was established in C57B1/6 mice. Animals were first treated for 5 days with oral tetracycline to reduce normal oral flora. An infection was initiated in the mice by inoculating a 50 μL suspension of C. albicans onto lightly scored tongues. This led to colonization of the tongues by days 2 to 4 after inoculation as measured by histological analysis and by recovery of viable colonies upon homogenization. Topical treatment of the infections on day 3 with a single 50 μL dose of a 1 mg/mL compound solution in a neutral hydrogel was sufficient to reduce the total colony counts by greater than 10-fold, equivalent to a similar treatment with an equivalent concentration of Nystatin suspension. […] 8-week old male mBD-1(−/−) mice on a C57B1/6 background were pre-treated for 5 days with 2.5 mg/mL oral tetracycline to reduce normal oral flora (n=5 per group; n=4 for nystatin group). Day 0: infection initiated by oral inoculation of a 50 μL suspension of C. albicans (clinical isolate GDH2346 at 5×10^7 cfu/mL) onto a cotton ball after lightly scoring the tongues. Day 3: Single topical administration of test agent (10 mg/mL) applied in 0.05 mL hydrogel. Tissue was harvested 24 hours post-treatment, homogenized, and quantitated by serial dilution and plating.

Data set [6] deals with C. albicans mature biofilms. In words: Metabolic activity of mature biofilms grown at an air-liquid interface. In kind it is cell-based.

In the case of `NCCCOc1cc(OCCCN)cc(-c2ccc3c(c2)c2cc(-c4cc(OCCCN)cc(OCCCN)c4)ccc2n3CCCN)c1` [Compound 135], the “survival over a 14-day period, p between Fluconazole and compound” value in the data set with C. albicans [1] (10 mg/kg IV once daily for 4 days) and in the data set with C. albicans [1] (15 mg/kg IV once daily for 4 days) was under 0.01 in each case. The “reductions in tissue burden from treatment onset” value with C. albicans [2] is at least 1.5 log10.

The term EC50 denotes the concentration that produces a half-maximal response. Turning to `N=C(N)N1CCN(c2ccc(-c3cc(-c4ccc(N5CCN(C(=N)N)CC5)cc4)ncn3)cc2)CC1` [Compound 136], the EC50 in data set [3] (human, HepG2 cells (transformed liver), read-out: Cytotoxicity EC50 Human HepG2) was 453 µM; in data set [3] (mouse, 3T3 fibroblasts, read-out: Cytotoxicity EC50 Mouse 3T3), 311 µM.

In the case of `NCCSc1cc(SCCN)c(C(F)(F)F)cc1NC(=O)c1cc(C(=O)Nc2cc(C(F)(F)F)c(SCCN)cc2SCCN)ncn1` [Compound 100], in data set [4], the “death of hyphal cultures” value is recorded as “rapidly caused death of hyphal cultures at low concentrations”. In data set [5] (single 50 μL dose of 1 mg/mL solution in neutral hydrogel, day 3, C57B1/6 mice), the “reduction of total colony counts” value is “greater than 10 fold”. Also, the “efficacy relative to Nystatin” value in data set [5] (single topical dose 10 mg/mL in 0.05 mL hydrogel on day 3, tongue harvested 24 hours post-treatment) turned out to be 50 fold. The “effect on infected tongue burden” value in data set [5] (single topical dose 10 mg/mL in hydrogel) is reported as “nearly sterilized the infected tongue”. Moreover, the “metabolic activity in mature biofilms” value in data set [6] is “significant reduction of metabolic activity”.
